How the values were obtained:
[1] = target: T1, cPLA2 (Homo sapiens, UniProt P47712); assay: Coumarine assay (7-hydroxycoumarinyl 6-heptenoate hydrolysis); type: biochemical
T1 sequence (P47712 1-749): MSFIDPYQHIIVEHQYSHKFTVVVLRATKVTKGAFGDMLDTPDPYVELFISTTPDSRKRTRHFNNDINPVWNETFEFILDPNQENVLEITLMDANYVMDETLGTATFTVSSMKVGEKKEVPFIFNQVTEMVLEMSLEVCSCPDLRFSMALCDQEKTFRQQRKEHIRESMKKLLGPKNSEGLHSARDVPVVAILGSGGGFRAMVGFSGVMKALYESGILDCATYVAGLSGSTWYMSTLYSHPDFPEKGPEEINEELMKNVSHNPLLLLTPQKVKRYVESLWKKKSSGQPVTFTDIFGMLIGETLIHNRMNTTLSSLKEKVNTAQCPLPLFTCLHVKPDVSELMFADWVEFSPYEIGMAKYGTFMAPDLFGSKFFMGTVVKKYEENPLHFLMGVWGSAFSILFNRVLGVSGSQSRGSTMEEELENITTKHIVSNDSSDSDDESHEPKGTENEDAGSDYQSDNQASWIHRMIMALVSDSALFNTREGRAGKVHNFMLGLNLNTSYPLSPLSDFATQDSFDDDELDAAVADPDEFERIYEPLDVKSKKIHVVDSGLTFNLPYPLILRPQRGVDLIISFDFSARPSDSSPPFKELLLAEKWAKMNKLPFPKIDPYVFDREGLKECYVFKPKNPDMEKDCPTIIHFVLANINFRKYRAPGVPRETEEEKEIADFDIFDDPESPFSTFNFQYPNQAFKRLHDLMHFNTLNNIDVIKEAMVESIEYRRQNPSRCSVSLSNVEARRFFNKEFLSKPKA
Method: 7-hydroxycoumarinyl 6-heptenoate was used as a monomeric substrate for cPLA2 as reported previously (Huang, Z. et al., 1994, Analytical Biochemistry 222, 110-115). Inhibitors were mixed with 200 μL assay buffer (80 mM Hepes, pH 7.5, 1 mM EDTA) containing 60 μM 7-hydroxycoumarinyl 6-heptenoate. The reaction was initiated by adding 4 μg cPLA2 in 50 μL assay buffer. Hydrolysis of the 7-hydroxycoumarinyl 6-heptenoate ester was monitored in a fluorometer by exciting at 360 nm and monitoring emission at 460 nm. Enzyme activity is proportional to the increasein emission at 460 nm per minute. In the presence of a cPLA2 inhibitor, the rate of increase is less.

[2] = target: T1, cPLA2; assay: Soluble substrate assay (LysoPC); type: biochemical
Method: (b) Soluble Substrate Assay (LysoPC)
The lipid was resuspended by vortexing 80 mM Hepes pH 7.5, 1 mM EDTA (1.2×final concentration). A typical assay consisted of lipid suspension (85 μl) to which was added consecutively the inhibitor (5 μl in DMSO) and cPLA2, 200 ng in 80 mM Hepes pH 7.5, 2 mM DTT and […]. This assay was conducted by either the manual assay or automated assay protocol described below.

[3] = 60 μM 7-hydroxycoumarinyl 6-heptenoate, read-out: IC50 (μM) Coumarine
[4] = NA = inhibitory activity not detected, read-out: IC50 (μM) Lyso PC

Row | Molecule | IC50 [1, 3] [µM] | IC50 [2, 4] [µM] | IC50 [2] [µM] | IC50 [1] [µM]
1 | 3-(2-(5-Benzyloxy-1-tert-butoxycarbonyl)indolinyl)methylsulfonylacetamidobenzoic Acid [Example 64] | > 64 | 17.6 | – | –
2 | 3-(2-(-5-Benzyloxy-1-(2,4-bis(1,1-dimethy)propyl)phenoxyacetyl)indolinyl)methylthioacetamido-4-methylbenzoic Acid [Example 18] | 10 | 0.28 | – | –
3 | 3-(N-(2-(-5-Benzyloxy-1-(2,4-bis(1,1-dimethy)propyl)phenoxyacetyl)indolinyl)methylthioethyl)aminobenzoic Acid [Example 69] | 6 | 19.4 | – | –
4 | 5-(2-(5-(3,5-Dibromo)benzyloxy-1-(3,5-bis(trifluoromethyl)phenoxyacetyl)indolinyl)methylthioacetamido)benzene-1,3-dicarboxylic Acid [Example 45] | 5 | 0.37 | – | –
5 | 5-(2-(-5-Benzyloxy-1-(3,5-bis(trifluoromethyl)phenoxyacetyl)indolinyl)methylthioacetamido)-3-hydroxymethylbenzoic Acid [Example 41] | 22 | 2.2 | – | –
6 | 5-(2-(-5-Benzyloxy-1-(3,5-bis(trifluoromethyl)phenoxyacetyl)indolinyl)methylthioacetamido)benzene-1,3-dicarboxylic Acid [Example 38] | > 50 | 6.9 | – | –
7 | 5-(2-(-5-Hydroxy-1-(3,5-bis(trifluoromethyl)phenoxyacetyl)indolinyl)methylthioacetamido)benzene-1,3-dicarboxylic Acid [Example 44] | > 30 | 27 | – | –
8 | O=C(O)c1ccccc1OCc1cc2cc(OCc3ccccc3)ccc2n1C(=O)OCc1ccccc1 [Example 1, 2-(2-(1-Phenylmethoxycarbonyl-5-phenylmethoxy)indolyl)methoxybenzoic Acid] | – | – | 47 | –
9 | O=C(O)c1ccc(OCc2cc3cc(OCc4ccccc4)ccc3n2C(=O)OCc2ccccc2)cc1 [Example 2, 4-(2-(1-Phenylmethoxycarbonyl-5-phenylmethoxy)indolyl)methoxybenzoic Acid] | – | – | 6 | –
10 | O=C(O)c1cccc(OCc2cc3cc(OCc4ccccc4)ccc3n2C(=O)OCc2ccccc2)c1 [Example 3, 3-(2-(1-Phenylmethoxycarbonyl-5-phenylmethoxy)indolyl)methoxybenzoic Acid] | – | – | 6.5 | 14
11 | O=C(O)c1cccc(NC(=O)c2cc3cc(OCc4ccccc4)ccc3n2Cc2ccccc2)c1 [Example 5, 3-(2-(1-Benzyl-5-benzyloxy)indolecarboxamido)benzoic Acid] | – | – | 4.3 | 52
12 | CCC(C)(C)c1ccc(CCCCn2c(C(=O)Nc3cc(C(=O)O)ccc3OC)cc3cc(OCc4ccccc4)ccc32)c(C(C)(C)CC)c1 [Example 6] | – | – | 2 | 6
13 | O=C(O)c1cc(NC(=O)c2cc3cc(OCc4ccccc4)ccc3n2Cc2ccc3ccccc3c2)cc(C(=O)O)c1 [Example 7] | – | – | 2.1 | 15
14 | CCC(C)(C)c1ccc(OCC(=O)c2c(CSCC(=O)Nc3cc(C(=O)O)ccc3OC)n(C)c3ccc(OC)cc23)c(C(C)(C)CC)c1 [Example 12, 3-(2-(3-(2,4-bis(1,1-Dimethypropyl)phenoxyacetyl)-5-methoxy-1-methyl)indolyl)methylthioacetamido-4-methoxybenzoic Acid] | – | – | 4 | 10
15 | CCn1c(CSCC(=O)Nc2cc(C(=O)O)ccc2OC)c(C(=O)COc2ccc(C(C)(C)CC)cc2C(C)(C)CC)c2cc(OCc3ccccc3)ccc21 [Example 13] | – | – | 0.5 | 12
16 | O=C(O)CSCC1Cc2cc(OCc3ccccc3)ccc2N1C(=O)COc1cc(C(F)(F)F)cc(C(F)(F)F)c1 (stereo not drawn) [Example 37, 2-(5-Benzyloxy-1-(3,5-bis(trifluoromethyl)phenoxyacetyl)indolinyl)methylthioacetic Acid] | > 30 | 7.6 | – | –
17 | CN(C)C(=O)c1cc(NC(=O)CSCC2Cc3cc(OCc4ccccc4)ccc3N2C(=O)COc2cc(C(F)(F)F)cc(C(F)(F)F)c2)cc(C(=O)O)c1 (stereo not drawn) [Example 39] | 18 | 4.3 | – | –
18 | CC(=O)c1cc(NC(=O)CSCC2Cc3cc(OCc4ccccc4)ccc3N2C(=O)COc2cc(C(F)(F)F)cc(C(F)(F)F)c2)cc(C(=O)O)c1 (stereo not drawn) [Example 40] | 11 | 6.2 | – | –

Row | Molecule | IC50 [1, 3] [µM] | IC50 [2, 4] [µM] | IC50 [2] [µM] | IC50 [1] [µM]
19 | CC(O)c1cc(NC(=O)CSCC2Cc3cc(OCc4ccccc4)ccc3N2C(=O)COc2cc(C(F)(F)F)cc(C(F)(F)F)c2)cc(C(=O)O)c1 (stereo not drawn) [Example 42] | 14 | 7.8 | – | –
20 | CNC(=O)c1cc(NC(=O)CSCC2Cc3cc(OCc4ccccc4)ccc3N2C(=O)COc2cc(C(F)(F)F)cc(C(F)(F)F)c2)cc(C(=O)O)c1 (stereo not drawn) [Example 43] | 21 | 7.1 | – | –
21 | CC(C)(c1ccccc1)c1ccc(OCC(=O)N2c3ccc(OCc4ccccc4)cc3CC2CSCC(=O)Nc2cccc(C(=O)O)c2)c(C(C)(C)c2ccccc2)c1 (stereo not drawn) [Example 56] | 5 | 0.47 | – | –
22 | O=C(CSCC1Cc2cc(OCc3ccccc3)ccc2N1C(=O)COc1ccc(C2C=CCC2)cc1C1C=CCC1)Nc1cccc(C(=O)O)c1 (stereo not drawn) [Example 58] | 4 | 0.56 | – | –
23 | COc1ccc(C(=O)O)cc1NC(=O)CSCC1Cc2cc(OCc3ccccc3)ccc2N1C(=O)COc1ccc2ccccc2c1 (stereo not drawn) [Example 59, 3-(2-(5-Benzyloxy-1-(2-naphthoxyaceiyl)indolinyl)methylthioacetamido)4-methoxybenzoic Acid] | > 30 | 8.7 | – | –
24 | COc1ccc(C(=O)O)cc1NC(=O)CSCC1Cc2cc(OCc3ccccc3)ccc2N1C(=O)COc1ccc(Cc2ccccc2)cc1 (stereo not drawn) [Example 60] | > 30 | 4.6 | – | –
25 | CCC(C)(C)c1ccc(OCC(=O)N2c3ccc(OCc4ccccc4)cc3CC2CSCC(=O)O)c(C(C)(C)CC)c1 (stereo not drawn) [Example 66] | 6 | 2.3 | – | –
26 | CCC(C)(C)c1ccc(OCC(=O)N2c3ccc(OCc4ccccc4)cc3CC2CSc2ccccc2C(=O)NC)c(C(C)(C)CC)c1 (stereo not drawn) [Example 68] | > 50 | > 50 | – | –
27 | C=CCN(C(=O)CSCC1Cc2cc(OCc3ccccc3)ccc2N1C(=O)COc1ccc(C(C)(C)CC)cc1C(C)(C)CC)c1cc(C(=O)O)ccc1OC (stereo not drawn) [Example 71] | 12 | 5.9 | – | –
28 | O=C(CSCC1Cc2cc(OCc3ccccc3)ccc2N1CCc1ccncc1)Nc1cccc(C(=O)O)c1 (stereo not drawn) [Example 72] | > 64 | – | – | –
29 | O=C(CSCC1Cc2cc(OCc3ccccc3)ccc2N1Cc1ccc2ccccc2c1)Nc1cccc(C(=O)O)c1 (stereo not drawn) [Example 73, 3-(2-(5-Benzyloxy-1-(2-naphthyl)methy)indolinyl)methylthioacetamidobenzoic Acid] | 6 | 1.9 | – | –
30 | O=C(CSCC1Cc2cc(OCc3ccccc3)ccc2N1Cc1ccc(C(F)(F)F)cc1C(F)(F)F)Nc1cccc(C(=O)O)c1 (stereo not drawn) [Example 74] | 5 | 1.1 | – | –
31 | COc1ccc(C(=O)O)cc1NC(=O)CSCC1Cc2cc(OCc3ccccc3)ccc2N1Cc1ccc(C(F)(F)F)cc1C(F)(F)F (stereo not drawn) [Example 75] | 6.2 | 7 | – | –
32 | O=C(O)c1ccccc1SCC1Cc2cc(OCc3ccccc3)ccc2N1Cc1ccc(Cc2ccccc2)cc1 (stereo not drawn) [Example 78] | 3 | – | – | –
33 | O=C(O)c1ccc(CN2c3ccc(OCc4ccccc4)cc3CC2COCc2ccc(C(F)(F)F)cc2C(F)(F)F)cc1 (stereo not drawn) [Example 80, 4-(1-(5-Benzyloxy-2-(bis-2,4-trifluoromethyl)benzyloxymethyl)indolinyl)methylbenzoic Acid] | 16 | – | – | –
34 | O=C(O)c1ccc(CN2c3ccc(OCc4ccccc4)cc3CC2COCc2ccc3ccccc3c2)cc1 (stereo not drawn) [Example 81] | 15 | 3.2 | – | –
35 | O=C(O)c1cc(NC(=O)C2Cc3ccccc3N2Cc2ccc(C(F)(F)F)cc2C(F)(F)F)cc(C(=O)O)c1 (stereo not drawn) [Example 83] | > 50 | > 50 | – | –
36 | COc1ccc(COc2ccc3c(c2)CC(CNC(=O)Nc2cc(C(=O)O)cc(C(=O)O)c2)N3Cc2ccc(C(F)(F)F)cc2C(F)(F)F)cc1 (stereo not drawn) [Example 86] | 17 | – | – | –

— patent US6630496B1, “Inhibitors of phospholipase enzymes” (Genetics Institute LLC, priority 1996, dated 2003)
